From US20260226077A1, “TYPE II TOPOISOMERASE INHIBITORS AND METHODS OF MAKING AND USING THEREOF” (Ohio State Innovation Foundation, priority 2023, published 2026)
≈ marks a conversion by molar mass, not a printed value. Marks after values point to notes of the source that are not given here.

Experiments:
FQ-R MRSA = test: MIC against FQ-R MRSA isolates; assay type: cell-based, Staphylococcus aureus; conditions: Staphylococcus aureus, MRSA; n = 15 (147), n = 25 (284, 319, gepotidacin)
D83N = test: MIC against D83N mutant; assay type: cell-based
M121K = test: MIC against M121K mutant; assay type: cell-based
TopoIV/gyrase = TopoIV/gyrase inhibition ratio; assay type: biochemical
hERG = hERG (Homo sapiens, UniProt Q12809); test: hERG inhibition; assay type: cell-based
K562 = K562 cytotoxicity; assay type: cell-based; conditions: Homo sapiens
[1] = Mouse microsomal stability; assay type: in vitro ADME; conditions: microsomes, read-out: Mouse microsom. t1/2
Dog microsomal stability = assay type: in vitro ADME; conditions: microsomes, read-out: Dog microsom. t1/2
[2] = Monkey microsomal stability; assay type: in vitro ADME; conditions: microsomes, read-out: Monkey microsom. t1/2
S. aureus ATCC 29213 = assay type: cell-based; conditions: Using S. aureus ATCC 29213 and four additional strains of S. aureus
Staphylococcus aureus = test: MIC50/90 against Staphylococcus aureus isolates; assay type: cell-based; conditions: n = 30 (147), n = 100 (284, 319, gepotidacin)
[3] = test system: Staphylococcus epidermidis; test: MIC50/90 against Staphylococcus epidermidis; assay type: cell-based; conditions: n = 10
Streptococcus pneumoniae = test: MIC50/90 against Streptococcus pneumoniae; assay type: cell-based
Moraxella catarrhalis = test: MIC50/90 against Moraxella catarrhalis; assay type: cell-based; conditions: n = 10
Haemophilus influenzae = test: MIC50/90 against Haemophilus influenzae; assay type: cell-based; conditions: n = 10
Mycobacterium abscessus = test: MIC50/90 against Mycobacterium abscessus; assay type: cell-based; conditions: Mycobacteroides abscessus; n = 10
Mycobacterium avium = test: MIC50 against Mycobacterium avium; assay type: cell-based; conditions: n = 4
[4] = test system: Mycobacterium chimaera intracellulare group; test: MIC50 against Mycobacterium chimaera intracellulare group; assay type: cell-based; conditions: n = 6
Bacillus anthracis = test: microbe, parasite or virus in culture; assay type: cell-based
Francisella tularensis = test: microbe, parasite or virus in culture; assay type: cell-based
Yersinia pestis = test: microbe, parasite or virus in culture; assay type: cell-based
Burkholderia mallei = test: microbe, parasite or virus in culture; assay type: cell-based
Neisseria gonorrhoeae = test: MIC50/90 against Neisseria gonorrhoeae; assay type: cell-based
Escherichia coli 25922 = test: MIC against Escherichia coli 25922; assay type: cell-based
[5] = test system: CYP 1A, 2B6, 2C8, 2C9, 2C19, 2D6, 3A; test: CYP inhibition at 10 μM; assay type: in vitro ADME
In vitro micronucleus = assay type: cell-based
[6] = Permeability: CACO-2 A->B; assay type: in vitro ADME; conditions: human, Caco-2
[7] = Permeability: MDCK II A->B; assay type: in vitro ADME; conditions: dog
S. aureus 29213 = test: MIC against S. aureus 29213; assay type: cell-based; conditions: Staphylococcus aureus
S. aureus USA300 = test: MIC against S. aureus USA300; assay type: cell-based; conditions: Staphylococcus aureus
S. aureus CF isolate = test: MIC against S. aureus CF isolate; assay type: cell-based; conditions: Staphylococcus aureus
[8] = in vivo
[9] = not given; remark: listed apart in the source
[10] = not given; remark: listed apart in the source
[11] = not given; remark: listed apart in the source
[12] = all channels
in vivo = conditions: mouse, Mouse Vdss (L)
in vitro [13] = conditions: mouse, hepatocytes
in vitro [14] = conditions: mouse, plasma
in vitro [15] = conditions: rat, plasma
[16] = Neisseria gonorrhoeae, n = 17 (284, gepotidacin), n = 110 (147)
[17] = 284: as free base in immunocompetent mice, 147: no footnote
[18] = as mesylate salt in neutropenic mice

hERG, sequence (Q12809 whole entry): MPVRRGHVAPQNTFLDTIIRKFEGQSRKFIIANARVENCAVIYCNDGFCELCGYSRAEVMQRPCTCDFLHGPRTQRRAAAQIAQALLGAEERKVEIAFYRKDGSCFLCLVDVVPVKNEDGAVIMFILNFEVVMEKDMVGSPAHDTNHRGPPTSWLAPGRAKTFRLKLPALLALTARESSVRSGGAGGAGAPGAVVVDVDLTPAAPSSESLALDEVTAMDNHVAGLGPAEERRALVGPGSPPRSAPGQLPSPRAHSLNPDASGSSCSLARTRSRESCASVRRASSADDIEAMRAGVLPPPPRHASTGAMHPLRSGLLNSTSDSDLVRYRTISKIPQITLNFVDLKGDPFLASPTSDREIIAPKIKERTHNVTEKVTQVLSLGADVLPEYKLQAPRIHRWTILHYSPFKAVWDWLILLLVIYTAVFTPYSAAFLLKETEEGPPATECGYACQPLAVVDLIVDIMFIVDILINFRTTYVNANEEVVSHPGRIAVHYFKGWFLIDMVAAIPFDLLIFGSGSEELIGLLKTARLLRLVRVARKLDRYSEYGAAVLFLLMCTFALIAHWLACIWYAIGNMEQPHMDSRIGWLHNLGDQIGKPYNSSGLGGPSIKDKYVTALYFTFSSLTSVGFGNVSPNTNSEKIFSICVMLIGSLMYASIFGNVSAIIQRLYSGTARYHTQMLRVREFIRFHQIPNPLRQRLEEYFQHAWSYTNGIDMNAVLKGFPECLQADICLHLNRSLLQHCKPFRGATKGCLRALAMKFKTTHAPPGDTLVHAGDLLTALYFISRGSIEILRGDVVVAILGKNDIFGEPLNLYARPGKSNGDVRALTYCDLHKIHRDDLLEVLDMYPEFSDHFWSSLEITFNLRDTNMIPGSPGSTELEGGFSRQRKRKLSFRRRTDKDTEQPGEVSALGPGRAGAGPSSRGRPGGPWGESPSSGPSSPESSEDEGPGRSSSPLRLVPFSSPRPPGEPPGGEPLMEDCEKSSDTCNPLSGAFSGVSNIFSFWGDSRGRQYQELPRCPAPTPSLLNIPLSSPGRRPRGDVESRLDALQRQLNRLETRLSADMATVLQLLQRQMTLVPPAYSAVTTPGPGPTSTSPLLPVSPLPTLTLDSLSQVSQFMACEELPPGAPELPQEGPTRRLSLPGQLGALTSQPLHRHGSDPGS

With COc1ccc2ncc(F)c(C[C@H](O)[C@H]3OC[C@H](NCc4cnc5c(n4)NC(=O)CO5)CO3)c2n1 [Compound 284, 6-(((2-((S)-2-(3-fluoro-6-methoxy-1,5-naphthyridin-4-yl)-1-hydroxyethyl)-trans-1,3-dioxan-5-yl)amino)methyl)-2H-pyrazino[2,3-b][1,4]oxazin-3(4H)-one] the MIC90 (FQ-R MRSA) was 0.12 µg/mL (≈ 0.247 µM), the MIC (D83N) was 1 to 2 µg/mL (≈ 2.06 to 4.11 µM) and the MIC (M121K) was 1 to 4 µg/mL (≈ 2.06 to 8.22 µM). The TopoIV/gyrase ratio (TopoIV/gyrase) was 0.28, the IC50 (hERG) was 104 µM and the IC50 (K562) was greater than 200 µM. It also gave a half-life [1] greater than 120 min, a half-life (Dog microsomal stability) greater than 120 min and a half-life [2] greater than 120 min. The “Resistance freq. (at 8X MIC)” value (S. aureus ATCC 29213) was <9.62 × 10^−10**, the MIC50 (Staphylococcus aureus) was 0.12 µg/mL (≈ 0.247 µM) and the MIC90 (Staphylococcus aureus) was 0.25 µg/mL (≈ 0.514 µM). For the same molecule, the MIC50 [3] was 0.12 µg/mL (≈ 0.247 µM), the MIC90 [3] was 0.25 µg/mL (≈ 0.514 µM) and the MIC50 (Streptococcus pneumoniae; n = 5 (147), n = 10 (others)) was 0.5 µg/mL (≈ 1.03 µM). It also gave an MIC90 (Streptococcus pneumoniae; n = 10) of 1 µg/mL (≈ 2.06 µM), an MIC50 (Moraxella catarrhalis) of 0.12 µg/mL (≈ 0.247 µM) and an MIC90 (Moraxella catarrhalis) of 0.25 µg/mL (≈ 0.514 µM). The MIC50 (Haemophilus influenzae) was 4 µg/mL (≈ 8.22 µM), the MIC90 (Haemophilus influenzae) was 8 µg/mL (≈ 16.4 µM) and the MIC50 (Mycobacterium abscessus) was greater than 64 µg/mL. For the same molecule, the MIC90 (Mycobacterium abscessus) was greater than 64 µg/mL, the MIC50 (Mycobacterium avium) was 4 µg/mL (≈ 8.22 µM) and the MIC50 [4] was 64 µg/mL (≈ 132 µM). The MIC50 (Bacillus anthracis; read-out: Bacillus anthracis MIC50 (μg/mL)) was 0.06 µg/mL (≈ 0.123 µM), the MIC90 (Bacillus anthracis; read-out: Bacillus anthracis MIC90 (μg/mL)) was 0.25 µg/mL (≈ 0.514 µM) and the MIC50 (Francisella tularensis; read-out: Francisella tularensis MIC50 (μg/mL)) was 0.5 µg/mL (≈ 1.03 µM). It also gave an MIC90 (Francisella tularensis; read-out: Francisella tularensis MIC90 (μg/mL)) of 4 µg/mL (≈ 8.22 µM), an MIC50 (Yersinia pestis; read-out: Yersinia pestis MIC50 (μg/mL)) of 2 µg/mL (≈ 4.11 µM) and an MIC90 (Yersinia pestis; read-out: Yersinia pestis MIC90 (μg/mL)) of 8 µg/mL (≈ 16.4 µM). For the same molecule, the MIC90 (Burkholderia mallei; Burkholderia mallei, read-out: Burkholderia mallei MIC90 (μg/mL)) was greater than 64 µg/mL, the “Burkholderia mallei MIC50” value (Burkholderia mallei; n = 10) was 16 µg/mL and the MIC50 (Neisseria gonorrhoeae; Neisseria gonorrhoeae, n = 100) was 0.5 µg/mL (≈ 1.03 µM). For the same molecule, the MIC50 (Neisseria gonorrhoeae; [16]) was 1 µg/mL (≈ 2.06 µM), the MIC90 (Neisseria gonorrhoeae; [16]) was 2 µg/mL (≈ 4.11 µM) and the “Neisseria gonorrhoeae MIC90” value (Neisseria gonorrhoeae; n = 100) was 2 µg/mL. For the same molecule, the “Escherichia coli 25922 MIC” value (Escherichia coli 25922) was 16 µg/mL, the “CYP inhibition at 10 μM (1A, 2B6, 2C8, 2C9, 2C19, 2D6, 3A)” value [5] was “No issues” and the In vitro micronucleus (In vitro micronucleus) was “Pos. at high”. For the same molecule, the Papp A→B [6] was 1.5 ×10⁻⁶ cm/s, the Papp A→B [7] was 0.74 ×10⁻⁶ cm/s and the MIC (S. aureus 29213) was 0.125 to 0.25 µg/mL (≈ 0.257 to 0.514 µM). For the same molecule, the MIC (S. aureus USA300) was 0.125 to 0.25 µg/mL (≈ 0.257 to 0.514 µM), the MIC (S. aureus CF isolate) was 0.125 to 0.25 µg/mL (≈ 0.257 to 0.514 µM) and the “Mouse Vdss (L)” value [8] was 0.53*** L. For the same molecule, the “Mouse plasma protein binding (% unbound)” value was 31 % unbound, the “Rat plasma protein binding (% unbound)” value [9] was 4 % unbound and the “Dog plasma protein binding (% unbound)” value [10] was 20 % unbound. The “Kinetic solubility at pH 7.4-7.5 (μM)” value [11] was greater than 200 μM, the “Comprehensive in vitro proarrhythmia assay at 100 μM, inhibition” value [12] was “All <25%” and the Vd (in vivo) was 0.36 L. For the same molecule, the half-life (in vitro [13]) was greater than 240 min, the half-life (in vitro [14]) was greater than 120 min and the half-life (in vitro [15]) was greater than 120 min. For the same molecule, the “Mouse PK AUClast, unbound (μg*h/mL) after 50 mg/kg oral dose” value (Mouse pharmacokinetics; [17]) was 5** μg*h/mL, the “Mouse PK AUClast, unbound (μg*h/mL) after 50 mg/kg oral dose” value (Mouse pharmacokinetics; [18]) was 12*** μg*h/mL and the “Mouse Clunbound (mL/min/kg)” value (Mouse pharmacokinetics; [17]) was 15*** mL/min/kg. The “Mouse Clunbound (mL/min/kg)” value (Mouse pharmacokinetics; [18]) was 45**** mL/min/kg.
